Measurements from article PMC5286426, “The Calcium-Dependent Switch Helix of L-Plastin Regulates Actin Bundling” (Scientific Reports, 2017).
“Also recorded” adds a separate entry of the source. Like-named read-outs stand apart in the source and are kept apart here.

Experiments:
[1] = molecular target: T1, Ca^2+-bound EF (EF domain of LPL) (Homo sapiens, UniProt P13796); experiment: Surface plasmon resonance (SPR), peptides binding to immobilized EF
T1 construct: His-tag (with TEV protease cleavage site) (N, cleaved yes); made in house; host or cells: E. coli BL21 (DE3)
T1 sequence (P13796 1-82 limits assumed): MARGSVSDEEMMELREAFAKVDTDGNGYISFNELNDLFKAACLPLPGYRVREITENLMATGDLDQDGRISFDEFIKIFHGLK
Protocol: The binding between Ca^2+-bound LPL-EF and a synthetic peptide corresponding to H5 (Ac-[…]-NH2) was evaluated by SPR using a BIAcore X100 instrument (GE Healthcare) and was compared to other peptides including the cytotoxic peptide melittin, and the CaM-target CaMKI and smMLCK peptides. Peptides used here were purchased as synthetic peptides with >95% purity from Genscript (San Diego, CA). The EF construct was immobilized via its sole cysteine residue (Cys42) onto a CM5 sensor chip (GE Healthcare) using thiol-coupling. The running buffer contained 10 mM Tris-HCl pH 7.5, 150 mM KCl, 1 mM CaCl2, and 0.005% (v/v) Tween-20. Different concentrations of the peptide sample were injected at a flow rate of 30 μL/min with a contact time of 1 min at 25 °C. The BIAevaluation software 2.0 (GE Healthcare) was used to process the SPR sensorgrams and for curve-fitting to obtain the dissociation constants (Kd’s). Two different concentrations in each experiment were injected twice to obtain the fitting errors (SEM).
SPR measurements for the interactions between EF and various peptides. The affinity fittings […]
The response units at 4 seconds after starting the injection were used for CaMKIp due to the nonspecific binding seen later during the injection, while the response units at 4 seconds before stopping the injection were used for the […]
(1 picture or pasted object on this page, not shown here)

^15N-labeled EF = experiment: HSQC NMR titration of ^15N-labeled EF with peptide; type: binding, human; settings: H5 peptide added to ^15N-labeled EF (Supplementary Fig. S8)
Protocol: The calcium-free samples of EF-H5, EF-H5-S5E, and EF contained 0.5–1.0 mM ^15N- or ^13C,^15N-labeled protein, 100 mM KCl, 20 mM Bis-Tris (pH 6.8), 1 mM EDTA, 0.03% NaN3, 10 mM ^2H-labelled dithiothreitol (^2H-DTT), and 0.5 mM 2,2-dimethyl-2- silapentane-5-sulfonate (DSS) in 99.99% D2O or 10% D2O/90% H2O. The calcium free non-labeled LPL-EF was also prepared in 99.99% D2O with the same buffer components. The calcium-bound form of those constructs were prepared in buffer containing ~1 mM ^15N- or ^13C,^15N-labelled protein, 100 mM KCl, 20 mM Bis-Tris (pH 6.8), 5 mM CaCl2, 0.03% NaN3, 0.5 mM DSS, and 10 mM ^2H-DTT in 99.99% D2O or 10% D2O/90% H2O. The calcium-bound non-labeled LPL-EF-H5 was also prepared in 99.99% D2O with the same buffer ingredients. DSS was used as a reference to obtain ^1H, ^15N and ^13C chemical shifts. All NMR spectra were processed with NMRPipe[71] and analyzed using NMRView[72].
All NMR experiments were performed with a Bruker Avance 700 or 600 MHz spectrometer at 25 °C. […] All NOESY experiments including three-dimensional ^15N-edited NOESY-HSQC and ^13C-edited NOESY-HSQC, and two-dimensional NOESY were measured with a mixing time of 120 ms. {^1H}-^15N heteronuclear NOE data were obtained using a 5 sec train of 120° proton pulses.

[2] = system: ^15N-labeled ABD2 (residues 384–627); experiment: NMR titration of ^15N-labeled ABD2 with peptide; type: binding, human; settings: synthetic H5 peptide titrated into ^15N-labeled ABD2 (Supplementary Fig. S5b)
normal cells = settings: in words; no ref at the sentence; cited from earlier work
From the text: Development of metastasis provides the most serious challenge for cancer treatment and is responsible for most cancer related deaths. A number of recent studies have shown that ectopically expressed LPL is largely responsible for this process. Therefore, LPL presents itself as a promising target for drug development to prevent the metastatic activity of the cancer cells. It is also well known that inhibition of fascin, another actin-bundling protein, is a viable approach to block tumor metastasis.

[3] = EF immobilized via Cys42 on CM5 chip, 10 mM Tris-HCl pH 7.5, 150 mM KCl, 1 mM CaCl2, 0.005% Tween-20, 25 °C, response at 4 seconds before stopping the injection, fitting error SEM, read-out: KD

Compound	Kd ([1]; Ca^2+-bound EF, SPR, pH 7.5, 25 °C, read-out: Kd of H5 peptide for Ca^2+-bound EF (order of magnitude, discussion)) [nM]	Kd [1, 3] [nM]	HSQC spectral effect of H5 peptide on ^15N-labeled EF (^15N-labeled EF)	Interaction with ABD2 (chemical shift changes) [2]	Hemolysis and toxicity (normal cells)
Ac-STDVAKTFRKAINKKEGI-NH2 [H5p]	1000	3520	intermediate exchange and resultant line broadening; also recorded: did not produce the same spectrum as EF-H5	no chemical shift changes were observed, indicating no interaction	
CC[C@H](C)[C@H](NC(=O)CN)C(=O)NCC(=O)N[C@@H](C)C(=O)N[C@H](C(=O)N[C@@H](CC(C)C)C(=O)N[C@@H](CCCCN)C(=O)N[C@H](C(=O)N[C@@H](CC(C)C)C(=O)N[C@H](C(=O)N[C@H](C(=O)NCC(=O)N[C@@H](CC(C)C)C(=O)N1CCC[C@H]1C(=O)N[C@@H](C)C(=O)N[C@@H](CC(C)C)C(=O)N[C@H](C(=O)N[C@@H](CO)C(=O)N[C@@H](Cc1c[nH]c2ccccc12)C(=O)N[C@H](C(=O)N[C@@H](CCCCN)C(=O)N[C@@H](CCCNC(=N)N)C(=O)N[C@@H](CCCCN)C(=O)N[C@@H](CCCNC(=N)N)C(=O)N[C@@H](CCC(N)=O)C(=O)N[C@@H](CCC(N)=O)C(N)=O)[C@@H](C)CC)[C@@H](C)CC)[C@@H](C)O)[C@@H](C)O)C(C)C)C(C)C [Melittin, reference compound]		158			strong hemolytic peptide that is toxic to all normal cells
